Results published in patent US20230295260A1, “GLP RECEPTOR AGONISTS” (HEPTARES THERAPEUTICS LIMITED, priority 2020, published 2023).
Entries after “also recorded” stand apart in the source; their conditions may differ. Non-standard residues stand in square brackets, D forms with d. Residues, ends and D or L forms follow the SMILES beside them. *: point of attachment. Malonyl(2,2-Me2,histaminyl) = CC(C)(C(=O)NCCc1cnc[nH]1)C(=O)*; Ala(1H-tetrazol-5-yl) = N[C@@H](Cc1nnn[nH]1)C(=O)O; αMePhe(2-F) = C[C@](N)(Cc1ccccc1F)C(=O)O; Nle = CCCC[C@H](N)C(=O)O; Alloc = C=CCOC(=O)*

Tests used:
human GLP1 receptor = target: T1, human GLP1 receptor (Homo sapiens, UniProt P43220); assay: cAMP accumulation assay (HTRF), functional agonism of human GLP1 receptor in HEK cells; type: cell-based; conditions: HEK cells, human GLP1 receptor BacMam, 45 min 37° C.
T1 construct: expressed in transfected cells; host or cells: HEK cells, BacMam virus transduction
T1 sequence (P43220 24-463): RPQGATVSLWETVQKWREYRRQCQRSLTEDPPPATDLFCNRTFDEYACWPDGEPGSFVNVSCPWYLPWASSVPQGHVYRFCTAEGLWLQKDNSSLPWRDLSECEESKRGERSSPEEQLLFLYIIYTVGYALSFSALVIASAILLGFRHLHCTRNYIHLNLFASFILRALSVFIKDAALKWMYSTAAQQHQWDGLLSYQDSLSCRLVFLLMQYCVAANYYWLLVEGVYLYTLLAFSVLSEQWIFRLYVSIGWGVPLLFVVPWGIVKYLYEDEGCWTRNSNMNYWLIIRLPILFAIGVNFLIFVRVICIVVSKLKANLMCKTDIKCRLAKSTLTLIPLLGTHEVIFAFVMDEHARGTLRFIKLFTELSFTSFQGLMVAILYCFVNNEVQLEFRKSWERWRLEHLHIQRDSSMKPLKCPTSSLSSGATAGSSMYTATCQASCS
Method: (§1) The functional activity of the peptides were assessed using a HTRF cAMP assay. pEC50 values are quoted.
(§2) cAMP production upon agonist stimulation of human GLP2 or GLP1 receptor was assessed utilizing HiRange cAMP kit (Cisbio). In brief, HEK cells were infected with either human GLP2 or GLP1 receptor BacMam virus for 24 hours and frozen for later use in the assay. […] Cells were prepared in the assay buffer (HBSS (Lonza) supplemented with 0.5 mM IBMX (Tocris)). After 45 min incubation at 37° C., the reaction was stopped by addition of the HTRF detection reagents in the lysis buffer provided in the kit.

mouse GLP1 receptor = target: T2, mouse GLP1 receptor (Mus musculus, UniProt O35659); assay: cAMP accumulation assay (HTRF), functional agonism of mouse GLP1 receptor in HEK cells; type: cell-based; conditions: HEK cells transiently transfected, 45 min 37° C.
T2 construct: expressed in transfected cells; host or cells: HEK cells, transient transfection with GeneJuice
T2 sequence (O35659 22-463): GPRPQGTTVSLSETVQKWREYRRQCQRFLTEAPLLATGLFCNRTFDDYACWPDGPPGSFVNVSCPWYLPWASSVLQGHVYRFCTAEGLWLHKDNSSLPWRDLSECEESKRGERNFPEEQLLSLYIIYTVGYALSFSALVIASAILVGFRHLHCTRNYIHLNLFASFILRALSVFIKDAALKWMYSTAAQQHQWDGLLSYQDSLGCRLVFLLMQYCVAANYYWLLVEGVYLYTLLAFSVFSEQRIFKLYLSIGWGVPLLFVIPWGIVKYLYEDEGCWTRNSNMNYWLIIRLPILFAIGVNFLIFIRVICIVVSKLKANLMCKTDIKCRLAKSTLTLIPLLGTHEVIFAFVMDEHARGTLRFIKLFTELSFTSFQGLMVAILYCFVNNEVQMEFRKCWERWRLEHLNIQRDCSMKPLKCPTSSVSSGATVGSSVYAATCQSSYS

mouse GLP2 receptor = target: T3, mouse GLP2 receptor (Mus musculus, UniProt Q5IXF8); assay: cAMP accumulation assay (HTRF), functional agonism of mouse GLP2 receptor in HEK cells; type: cell-based; conditions: HEK cells transiently transfected, 45 min 37° C.
T3 construct: expressed in transfected cells; host or cells: HEK cells, transient transfection with GeneJuice
T3 sequence (Q5IXF8 1-512): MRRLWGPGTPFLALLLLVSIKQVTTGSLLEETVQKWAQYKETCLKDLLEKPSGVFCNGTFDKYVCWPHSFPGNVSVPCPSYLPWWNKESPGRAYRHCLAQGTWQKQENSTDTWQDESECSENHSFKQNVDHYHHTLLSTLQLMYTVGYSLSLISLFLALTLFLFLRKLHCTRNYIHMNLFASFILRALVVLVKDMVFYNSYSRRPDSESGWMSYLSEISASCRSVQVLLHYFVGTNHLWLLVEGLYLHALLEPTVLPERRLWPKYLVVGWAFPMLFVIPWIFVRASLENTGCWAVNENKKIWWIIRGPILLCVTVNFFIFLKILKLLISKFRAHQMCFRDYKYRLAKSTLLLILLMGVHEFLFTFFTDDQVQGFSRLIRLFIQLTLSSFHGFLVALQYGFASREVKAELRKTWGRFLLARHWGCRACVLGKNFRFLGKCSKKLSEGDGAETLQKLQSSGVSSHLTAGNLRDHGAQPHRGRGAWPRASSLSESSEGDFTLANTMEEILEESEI

C57BL/6J male mice [1] = assay: Effect on intestinal wet weight in normal mice (FIG. 1); type: in vivo, mouse; conditions: once daily sc 270 nmol/kg (liraglutide iv 200 ug/kg), sacrificed on day 3, vs. vehicle
Method: Mice were sacrificed on day 3 and the wet weight of the small intestine was quantified. GLP-2 active peptides show significant enhancement of the small intestinal weight. […] N=6 animals / grp. *p < 0.05 vs. vehicle
C57BL/6J male mice (Charles River, Italy, ~8 weeks) are randomly allocated to the treatment group based on the baseline body weights. Animals are given free access to food and water during the whole duration of the study. Mice are dosed daily with the test compounds via subcutaneous injection. […] The abdominal cavity will be opened and the intestinal tissue is excised carefully to avoid perforation. Tissue from the upper small intestine (15 cm segment from the pylorus) is collected. The bowel is cleaned by flushing through with ice cold PBS to remove any feces.

C57BL/6J male mice [2] = assay: Dose response effect on intestinal mass in normal mice, 7 day dosing (FIG. 2); type: in vivo, mouse; conditions: daily sc
Method: The enhancement of the small bowel wet weight (over vehicle) is plotted as a function of the peptide dose. […] N=6 animals I grp.
C57BL/6J male mice (Charles River, Italy, ~8 weeks) are randomly allocated to the treatment group based on the baseline body weights. Animals are given free access to food and water during the whole duration of the study. Mice are dosed daily with the vehicle or test peptides via subcutaneous injection. On day 7, animals are sacrificed and segments from the upper small intestine (15 cm segment from the pylorus) are collected and weighed (see Example B).

C57BL/6J male mice [3] = assay: Effect on glucose tolerance (OGTT) in normal mice (FIG. 3); type: in vivo, mouse; conditions: mice fasted 6 h, 270 nmol/kg sc 1 hour before 2 g/kg oral glucose (liraglutide 200 ug/kg iv)
Method: One hour before glucose challenge, Example 1 or 3 (270 nmol/kg) or vehicle (0.1% Tween80 in PBS) was administered as a single subcutaneous injection. […] Serial blood glucose measurements were taken at baseline and at timepoints post oral glucose challenge. (A) Time course of blood glucose levels. N=6 animals / grp. Mean +/-SEM.
C57BL/6J male mice (Charles River, Italy, ~8w) are fasted for 6 hours on the day of testing with free access to drinking water. Prior to drug dosing, pre-dose blood glucose measurements are taken using a glucometer (ACCU-CHEK performa, Roche Diagnostic GmbH). Animals are dosed with either the vehicle (0.1% Tween80 in PBS) or compound (270 nmol/kg) via subcutaneous injection. […] 1 hour after dosing, mice are given 2 g/kg oral gavage of glucose and blood is sampled at defined time points for analysis of blood glucose levels. Timepoints of sampling: t=0 (prior to glucose dosing), 15 mins, 30 mins, 60 mins, 120 mins and 180 mins.

human GLP2 receptor = target: T4, human GLP2 receptor (Homo sapiens, UniProt O95838); assay: cAMP accumulation assay (HTRF), functional agonism of human GLP2 receptor in HEK cells;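 also: HEK cells transduced via BacMam to express human GLP2 receptor, agonist-stimulated cAMP measured by HTRF after 45 min at 37 °C in HBSS with 0.5 mM IBMX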
T4 sequence (O95838 1-553): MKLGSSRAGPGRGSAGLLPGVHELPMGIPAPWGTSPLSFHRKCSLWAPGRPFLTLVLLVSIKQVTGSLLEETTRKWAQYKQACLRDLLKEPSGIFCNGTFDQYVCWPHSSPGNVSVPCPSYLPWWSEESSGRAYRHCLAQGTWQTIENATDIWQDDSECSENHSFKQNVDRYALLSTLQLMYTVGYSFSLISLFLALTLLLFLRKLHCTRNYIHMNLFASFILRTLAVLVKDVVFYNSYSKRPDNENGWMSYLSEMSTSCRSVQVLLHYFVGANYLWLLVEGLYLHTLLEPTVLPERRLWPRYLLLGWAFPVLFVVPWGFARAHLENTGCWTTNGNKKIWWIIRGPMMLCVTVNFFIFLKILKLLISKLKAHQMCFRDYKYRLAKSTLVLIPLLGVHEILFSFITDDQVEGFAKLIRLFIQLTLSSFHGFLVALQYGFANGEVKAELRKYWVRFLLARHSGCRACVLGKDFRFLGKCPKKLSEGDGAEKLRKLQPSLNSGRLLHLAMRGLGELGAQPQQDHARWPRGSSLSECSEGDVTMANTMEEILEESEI
Method: as §1, §2

## C=CCOC(=O)NCCCC[C@H](NC(=O)[C@H](CC(C)C)NC(=O)[C@H](CC(=O)O)NC(=O)[C@H](CC(C)C)NC(=O)[C@@H](NC(=O)[C@@H](NC(=O)[C@@H](Cc1ccccc1)NC(=O)[C@H](CCCC)NC(=O)[C@H](CCC(=O)O)NC(=O)[C@H](CC(=O)O)NC(=O)[C@H](CO)NC(=O)[C@](C)(Cc1ccccc1F)NC(=O)[C@H](CO)NC(=O)CNC(=O)[C@H](Cc1nn[nH]n1)NC(=O)C(C)(C)C(=O)NCCc1c[nH]cn1)[C@@H](C)O)[C@@H](C)CC)C(=O)N[C@@H](C)C(=O)N[C@@H](C)C(=O)N[C@@H](CCCCN)C(=O)N[C@@H](CC(=O)O)C(=O)N[C@@H](Cc1ccccc1)C(=O)N[C@H](C(=O)N[C@@H](CC(N)=O)C(=O)N[C@@H](Cc1c[nH]c2ccccc12)C(=O)N[C@@H](CC(C)C)C(=O)N[C@H](C(=O)N[C@@H](CCC(N)=O)C(=O)N[C@H](C(=O)N[C@@H](CCCCN)C(=O)N[C@H](C(=O)N[C@H](C(=O)N[C@@H](CC(=O)O)C(N)=O)[C@@H](C)O)[C@@H](C)CC)[C@@H](C)O)[C@@H](C)CC)[C@@H](C)CC [Example 3] ({Malonyl(2,2-Me2,histaminyl)}-[Ala(1H-tetrazol-5-yl)]GS[αMePhe(2-F)]SDE[Nle][dF]TILDLK(Alloc)AAKDFINWLIQTKITD-NH2)
Human GLP1 receptor; HEK293, read-out: Human GLP-1R agonist cAMP Emax
  Emax: 99.2%
Human GLP1 receptor; read-out: Human GLP-1R agonist cAMP pEC50 (converted)
  EC50: 0.0794 nM
Mouse GLP1 receptor; HEK293, read-out: Mouse GLP-1 R agonist cAMP Emax
  Emax: 99.5%
Mouse GLP1 receptor; read-out: Mouse GLP-1 R agonist cAMP pEC50 (converted)
  EC50: 0.398 nM
Mouse GLP2 receptor; HEK293, read-out: Mouse GLP-2R agonist cAMP Emax
  Emax: 103%
Mouse GLP2 receptor; read-out: Mouse GLP-2R agonist cAMP pEC50 (converted)
  EC50: 0.501 nM
C57BL/6J male mice [1]
  wet weight of the small intestine: superior enhancements in intestinal weight compared to Teduglutide; also recorded: Significant enhancement of intestinal wet weight
C57BL/6J male mice [2]
  enhancement of small bowel wet weight (over vehicle) as a function of dose: greater maximal enhancements in small intestinal wet weight compared to Teduglutide; also recorded: dose dependent enhancements in the wet weight of the small intestine
C57BL/6J male mice [3]
  peak blood glucose concentration in OGTT: significantly reduced
Human GLP2 receptor
  EC50: 0.0158 nM
Human GLP2 receptor; HEK293, read-out: Human GLP-2R agonist cAMP Emax
  Emax: 102%
